Several values for one entry are separate records, joined by “and”; a condition that tells them apart may be missing. Equal values may be shown once.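 Following 48 hours of exposure in 96-well plates, responses at five concentrations were used to interpolate endpoints linearly. Here, GI50 denotes the concentration required for 50% inhibition of growth. TGI marks complete inhibition of growth.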

Among the test systems are A549 NSCLC; MALME-3M melanoma; 786-0 renal; HT29 colon; SN12C renal; M14 melanoma; CAKI-1 renal; OVCAR-3 ovarian; HOP-92 NSCLC; HL-60(TB) leukemia.
What all share (assay): NCI-60 cell line screen, 48 h

As for `C[C@@H]1CC[C@@]2(OC1)O[C@H]1C[C@H]3[C@@H]4CC=C5C[C@@H](O[C@@H]6O[C@H](CO)[C@@H](O[C@@H]7O[C@@H](CO)[C@H](O)[C@H]7O)[C@H](O)[C@H]6O[C@@H]6O[C@@H](C)[C@H](O)[C@@H](O)[C@H]6O)CC[C@]5(C)[C@H]4CC[C@]3(C)[C@H]1[C@@H]2C`, the TGI was 2.04 µM in the test with A549 NSCLC; 2 µM in the test on MALME-3M melanoma; 2.68 µM in the test on 786-0 renal; 2.46 µM in the test on HT29 colon; 1.65 µM in the test on SN12C renal; 2.07 µM in the test with M14 melanoma. The TGI worked out at 2.05 µM in the test with CAKI-1 renal, 3.12 µM with OVCAR-3 ovarian, 2.1 µM in the test on HOP-92 NSCLC and 2.81 µM in the test with HL-60(TB) leukemia. In addition, the GI50 in the test on MALME-3M melanoma was 0.681 µM; in the test with 786-0 renal it was 1.37 µM; in the test on HT29 colon it was 1.06 µM; in the test on SN12C renal it was 0.481 µM; in the test on OVCAR-3 ovarian, 1.75 µM; in the test with HOP-92 NSCLC it was 0.806 µM. In the test on HL-60(TB) leukemia, the GI50 was 1.44 µM.

As to `COc1ccc2c(c1)CC[C@@H]1C2CC[C@]2(C)C(=O)NC(=O)CC12` (stereo partly specified), the TGI with A549 NSCLC, in the test with MALME-3M melanoma, with 786-0 renal, in the test on HT29 colon, with SN12C renal and in the test with M14 melanoma was over 100 µM in each case. Besides, the TGI with CAKI-1 renal, in the test on OVCAR-3 ovarian, in the test with HOP-92 NSCLC and in the test with HL-60(TB) leukemia was over 100 µM each time.

As for `COc1ccc(/C=C(\C#N)c2cc3ccccc3n2C)cc1`, the GI50 was 0.514 µM in the test with A549 NSCLC; 0.475 µM with MALME-3M melanoma; 0.613 µM in the test on 786-0 renal; 0.347 µM in the test with HT29 colon; 0.58 µM in the test on SN12C renal; 0.308 µM with M14 melanoma. The GI50 with CAKI-1 renal is 0.437 µM; with OVCAR-3 ovarian, 0.336 µM; with HOP-92 NSCLC it was 1.5 µM; in the test with HL-60(TB) leukemia it was 0.262 µM. Further, the TGI is over 100 µM in the test on A549 NSCLC; over 100 µM in the test on MALME-3M melanoma; over 100 µM with 786-0 renal; over 34.1 µM with HT29 colon; over 100 µM in the test with SN12C renal; over 100 µM in the test on M14 melanoma. Further, the TGI with CAKI-1 renal was over 100 µM; in the test with OVCAR-3 ovarian, 3.19 µM; in the test on HOP-92 NSCLC, over 100 µM.

For the molecule `O=C(NNS(=O)(=O)c1cc(C(F)(F)F)cc(C(F)(F)F)c1)c1cnn(-c2ccc(Cl)cc2)c1C(F)(F)F`, the GI50 is 13.7 µM in the test on A549 NSCLC; 16.9 µM with MALME-3M melanoma; 18.1 µM in the test with 786-0 renal; 31.7 µM in the test on HT29 colon; 17.2 µM with SN12C renal; 16.3 µM in the test with M14 melanoma. Further, the GI50 in the test with CAKI-1 renal was 26.2 µM; in the test on OVCAR-3 ovarian it was 15.3 µM; in the test with HOP-92 NSCLC, 14.8 µM; in the test with HL-60(TB) leukemia it was 20.7 µM. For the same molecule, the TGI in the test on A549 NSCLC is 33.2 µM; in the test with MALME-3M melanoma, 34.3 µM; in the test with 786-0 renal, 42.2 µM; with HT29 colon, over 100 µM; with SN12C renal, 34.8 µM; in the test on M14 melanoma it was 30.9 µM. Moreover, the TGI with CAKI-1 renal was 57.2 µM; with OVCAR-3 ovarian, 33.4 µM; in the test with HOP-92 NSCLC, 31.8 µM; in the test with HL-60(TB) leukemia, 45.6 µM.

Take `COc1ccccc1/C=C\c1cc(OC)c(OC)c(OC)c1`: the TGI in the test on A549 NSCLC, in the test with MALME-3M melanoma, in the test on 786-0 renal, in the test with HT29 colon, in the test on SN12C renal and in the test with M14 melanoma was over 100 µM in each case. Besides, the TGI is over 100 µM in the test with CAKI-1 renal, 55.6 µM in the test with OVCAR-3 ovarian, 81.6 µM in the test on HOP-92 NSCLC and 20.1 µM with HL-60(TB) leukemia.

Turning to `Oc1ccc2ccccc2c1N=Nc1ccccc1`, the TGI in the test on A549 NSCLC, in the test on MALME-3M melanoma, in the test with 786-0 renal, in the test on HT29 colon, with SN12C renal and with M14 melanoma was over 100 µM throughout. Moreover, the TGI in the test on CAKI-1 renal, with OVCAR-3 ovarian, in the test with HOP-92 NSCLC and with HL-60(TB) leukemia was over 100 µM each time. Moreover, in the test on 786-0 renal, the GI50 was 35.4 µM and > 100 µM.

Take `COc1ccc(C(O)c2cc3c(N)c(C(=O)Nc4cccc(Br)c4)sc3nc2C)cc1` (stereo unspecified): the GI50 is 0.14 µM in the test on A549 NSCLC; 0.799 µM with MALME-3M melanoma; 0.225 µM with 786-0 renal; 0.109 µM with HT29 colon; 0.21 µM in the test with SN12C renal; 0.0318 µM with M14 melanoma. The GI50 in the test on CAKI-1 renal was 0.141 µM; in the test with OVCAR-3 ovarian, 0.0949 µM; with HOP-92 NSCLC, 0.554 µM; in the test with HL-60(TB) leukemia, 0.085 µM. Moreover, the TGI in the test with A549 NSCLC is over 100 µM; with MALME-3M melanoma it was over 52.7 µM; in the test with 786-0 renal it was over 39.4 µM; in the test on SN12C renal, over 31.9 µM; with M14 melanoma it was 14.1 µM; in the test with CAKI-1 renal, over 32 µM. Also, the results for the TGI with OVCAR-3 ovarian, in the test on HOP-92 NSCLC and in the test with HL-60(TB) leukemia were 0.322 µM, 21.3 µM and 0.242 µM, respectively.

`Cc1ccc(N2C(=O)/C(=C3\Sc4c(nc(C)[nH]c4=O)N3c3ccccc3)SC2=S)cc1`: the TGI in the test on A549 NSCLC was over 100 µM; with MALME-3M melanoma, over 100 µM; with 786-0 renal, 25.3 µM; with HT29 colon, over 100 µM; in the test on SN12C renal, over 100 µM; in the test on M14 melanoma, over 100 µM. Further, the TGI is over 100 µM in the test with CAKI-1 renal, 47.7 µM with OVCAR-3 ovarian, 97.3 µM in the test on HOP-92 NSCLC and over 100 µM in the test with HL-60(TB) leukemia.

Take `O=c1[nH]c(=S)[nH]c(O)c1/C=C1\C=CC=N1`: the TGI in the test with A549 NSCLC was over 100 µM; with MALME-3M melanoma it was 34.4 µM; in the test on 786-0 renal, 24.8 µM; in the test with HT29 colon, 54.2 µM; in the test on SN12C renal, 22.5 µM; in the test with M14 melanoma, 54.8 µM. Also, the TGI was 25.6 µM in the test on CAKI-1 renal, 21.8 µM in the test on OVCAR-3 ovarian, 36.1 µM in the test on HOP-92 NSCLC and over 100 µM in the test on HL-60(TB) leukemia.

For the molecule `COc1ccc(/C=C2\COc3ccc(-c4ccccc4)cc3C2=O)cc1O`, the GI50 in the test on A549 NSCLC is 2.96 µM; in the test with MALME-3M melanoma, 1.04 µM; in the test on 786-0 renal, 5.02 µM; with HT29 colon it was 1.46 µM; in the test with SN12C renal, 3.78 µM; in the test on M14 melanoma, 3.41 µM. Also, the GI50 in the test with CAKI-1 renal was 4.61 µM; in the test on OVCAR-3 ovarian, 1.76 µM; in the test on HOP-92 NSCLC, 2.55 µM; with HL-60(TB) leukemia, 2.29 µM. Moreover, the TGI in the test on A549 NSCLC came to 18.9 µM; with MALME-3M melanoma, 4.31 µM; in the test with 786-0 renal it was 15.7 µM; in the test on HT29 colon, 3.85 µM; in the test on SN12C renal it was 14.5 µM; in the test on M14 melanoma it was 14.6 µM. For the same molecule, the TGI in the test on CAKI-1 renal was 32.9 µM; with OVCAR-3 ovarian it was 4.97 µM; in the test with HOP-92 NSCLC, 18.9 µM; in the test with HL-60(TB) leukemia, over 100 µM.

These data come from PubChem BioAssay (NCI).
